Experiments:
Assay type in all cases: in vivo, swine
[1] = test system: ovariectomized estrogen primed gilt model; experiment: Dose response study of deslorelin in SAIB, LH release determined by RIA; conditions: single injection of 50 mcg
Procedure: A dose response study was performed using deslorelin in SAIB in an ovariectomized estrogen primed gilt model (Barb, et al. (1999) Proceed. Int'l. Symp. Control. Rel. Bioact. Mater., 26).

mature postpartum sows = experiment: Intravulvar deslorelin in SAIB at estrus detection, AI breeding of mature postpartum sows; conditions: 50 μg intravulvar at first estrus detection
Procedure: Sows were assigned randomly in blocks of two to either control or to be injected intravulvar with 50 mcg of deslorelin in SAIB at the time of estrus detection for sows first detected in estrus in the a.m. and 12 hours later for those first detected in estrus in the p.m. Treated animals were bred AI upon detected estrus and again 24 hours later if still in estrus. Controls received a saline injection on first detected estrus behavior estrus detection and were bred according to the farm's normal procedures.

postpartum sows = experiment: Single timed deslorelin in SAIB injection 96 hours post-weaning, single timed insemination without estrus detection
Procedure: Approximately 170 postpartum sows were randomly divided into two equal groups comprised of controls and treated. Following weaning, the controls were detected for estrus and bred following the normal standard operating procedures for the farms on which they resided. The treated sows received a 50 mcg dose of deslorelin in SAIB at 96 hours post-weaning and were bred with a single insemination 28+/−2 hours later with no regard to estrus detection. The sows were examined for pregnancy by ultrasound at 21 days and slaughtered around 28 days post breeding. The entire reproductive tract was removed and corpora lutea and embryos were counted.

CCNC(=O)[C@@H]1CCCN1C(=O)[C@H](CCCN=C(N)N)NC(=O)[C@H](CC(C)C)NC(=O)[C@@H](Cc1c[nH]c2ccccc12)NC(=O)[C@H](Cc1ccc(O)cc1)NC(=O)[C@H](CO)NC(=O)[C@H](Cc1c[nH]c2ccccc12)NC(=O)[C@H](Cc1cnc[nH]1)NC(=O)[C@@H]1CCC(=O)N1 [Deslorelin, deslorelin]
time at which LH returned to base level [1]: ≤ 18 h
LH peak relative to normal value ([1]; normal value from Hansel et al. 1973): about twice normal value
Length of Estrus (Hrs.) (mature postpartum sows; AI, AI again if in estrus the next day): 40.81 (n = 69) Hrs.
Live piglet number per litter, greater in Deslorelin versus Saline sows (mature postpartum sows; difference to saline control, listed as deslorelin in SAIB): 0.6
Sows Pregnant (postpartum sows; 50 mcg at 96 hours post-weaning, single insemination 28+/-2 hours later, 84 in group, ultrasound at 21 days): 60
pregnancy rates (in words) (postpartum sows; single timed injection post-weaning, single timed insemination, no estrus detection): normal pregnancy rates

From patent US20190183963A1, “PROCESS FOR THE SYNCHRONIZATION OF OVULATION FOR TIMED BREEDING WITHOUT HEAT DETECTION” (priority 2003, published 2019)
